This is an account of results in patent US20110086759A1, “CHEMICAL COMPOUNDS” (SYNGENTA CROP PROTECTION, INC., priority 2007, published 2011).

SMILES strings stand for the structures.

Holding throughout (type): in vivo
The subject of assay [1] is Alopecurus myosuroides (ALOMY). Description: Pre-emergence biological efficacy, glasshouse pot test. The note with it: 312 h, pre-emergence, 1,000 g/ha, evaluated after 13 days (100=total damage; 0=no damage), read-out: Percentage damage ALOMY. The method, boiled down:
(§1)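 Visual phytotoxicity (0 no damage, 100 total damage) assessed 13 d after treatment. Soil-sown pots sprayed one day post-sowing; dose 1000 or 250 g/ha; formulation in acetone/water 50:50, 0.5% Tween 20.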

Assay [2] has as its system Amaranthus retoflexus (AMARE). The description is as above. The note with it: Amaranthus retroflexus, 312 h; pre-emergence, 1,000 g/ha, evaluated after 13 days (100=total damage; 0=no damage); read-out: Percentage damage AMARE. The method, boiled down: as §1
The subject of assay [3] is Echinochloa crus-galli (ECHCG). Described as above. The note with it: 312 h, pre-emergence, 1,000 g/ha, evaluated after 13 days (100=total damage; 0=no damage), read-out: Percentage damage ECHCG. The method, boiled down:
as §1

Assay [4] concerns Ipomea hederaceae (IPOHE). The assay is described as above. The note with it: Ipomoea hederacea, 312 h; pre-emergence, 1,000 g/ha, evaluated after 13 days (100=total damage; 0=no damage); read-out: Percentage damage IPOHE. The method, boiled down:
as §1

Assay [5] relates to Setaria faberi (SETFA). The assay is described as above. The note with it: 312 h, pre-emergence, 1,000 g/ha, evaluated after 13 days (100=total damage; 0=no damage), read-out: Percentage damage SETFA. The method, boiled down:
as §1

In assay [6] the test system is Solanum nigrum (SOLNI). Described as above. The following applies: 312 h, pre-emergence, 1,000 g/ha, evaluated after 13 days (100=total damage; 0=no damage), read-out: Percentage damage SOLNI. The method, boiled down:
as §1

Assay [7] deals with Alopecurus myosuroides (ALOMY). Description: Post-emergence biological efficacy, glasshouse pot test. The note with it: 312 h, post-emergence, 1,000 g/ha, evaluated after 13 days (100=total damage; 0=no damage), read-out: Percentage damage caused to weed species, ALOMY. The method, boiled down: (§2)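 Pot-grown weeds were sprayed 8 days after sowing with test compound in acetone/water (50:50) with 0.5% Tween 20 at 1000 or 250 g/ha. Glasshouse at 24/16° C day/night, 14 h light, 65% humidity. Damage scored 0-100 (100 = total damage) after 13 days.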

Assay [8] has as its system Amaranthus retoflexus (AMARE). The description is as above. The note with it: Amaranthus retroflexus, 312 h; post-emergence, 1,000 g/ha, evaluated after 13 days (100=total damage; 0=no damage); read-out: Percentage damage caused to weed species, AMARE. The method, boiled down:
as §2

In assay [9] the test system is Echinochloa crus-galli (ECHCG). The description is as above. The following applies: 312 h, post-emergence, 1,000 g/ha, evaluated after 13 days (100=total damage; 0=no damage), read-out: Percentage damage caused to weed species, ECHCG. The method, boiled down: as §2
The subject of assay [10] is Ipomea hederaceae (IPOHE). The description is as above. The following applies: Ipomoea hederacea, 312 h; post-emergence, 1,000 g/ha, evaluated after 13 days (100=total damage; 0=no damage); read-out: Percentage damage caused to weed species, IPOHE. The method, boiled down:
as §2

Assay [11] relates to Setaria faberi (SETFA). The assay is described as above. The note with it: 312 h, post-emergence, 1,000 g/ha, evaluated after 13 days (100=total damage; 0=no damage), read-out: Percentage damage caused to weed species, SETFA. The method, boiled down:
as §2

For assay [12], the system named is Solanum nigrum (SOLNI). Described as above. The following applies: 312 h, post-emergence, 1,000 g/ha, evaluated after 13 days (100=total damage; 0=no damage), read-out: Percentage damage caused to weed species, SOLNI. The method, boiled down:
as §2

With `COC(=O)c1nc(C2CC2)nc(NCc2ccc(Cl)c(OC)c2)c1Cl` [Compound 4-116, 5-Chloro-4-(4-chloro-3-methoxy-phenylmethyl-amino)-2-cyclopropyl-6-methoxycarbonyl-pyrimidine], the pest or weed control at 1000 g/ha stood at 50% in assay [1]; 100% in assay [2]; 70% in assay [3]; 100% in [4]; 80% in assay [5]; 100% in assay [6]. The pest or weed control at 1000 g/ha is 60% in assay [7]; 100% in assay [8]; 100% in assay [9]; 100% in [10]; 90% in assay [11]; 100% in assay [12].

Consider `COC(=O)c1nc(C2CC2)nc(NCc2c(F)ccc(F)c2F)c1Cl` [Compound 4-118, 5-Chloro-2-cyclopropyl-6-methoxycarbonyl-4-(2,3,6-trifluoro-phenylmethyl-amino)pyrimidine], for which the pest or weed control at 1000 g/ha in [1] was 20%; in assay [2] it was 40%; in assay [3], 50%; in assay [4], 70%; in assay [5], 0%; in assay [6], 40%. The pest or weed control at 1000 g/ha is 60% in assay [7]; 100% in assay [8]; 80% in assay [9]; 90% in assay [10]; 80% in assay [11]; 80% in [12].

For the compound `COC(=O)c1nc(C2CC2)nc(NCc2cc(F)c(F)cc2F)c1Cl` [Compound 4-120, 5-Chloro-2-cyclopropyl-6-methoxycarbonyl-4-(2,4,5-trifluoro-phenylmethyl-amino)pyrimidine], the pest or weed control at 1000 g/ha came to 10% in assay [1]; 60% in [2]; 20% in assay [3]; 40% in [4]; 10% in [5]; 50% in assay [6]. The pest or weed control at 1000 g/ha turned out to be 20% in assay [7]; 100% in assay [8]; 60% in assay [9]; 100% in [10]; 90% in assay [11]; 100% in assay [12].

Take `COC(=O)c1nc(C2CC2)nc(NCc2c(C)cc(Cl)cc2Cl)c1Cl` [Compound 4-121, 5-Chloro-2-cyclopropyl-4-(2,4-dichloro-6-methylphenylmethyl-amino)-6-methoxy-carbonylpyrimidine]: the pest or weed control at 1000 g/ha in [1] amounted to 0%; in assay [2], 20%; in assay [3], 0%; in assay [4], 20%; in [5] it was 0%; in assay [6], 0%. Besides, the pest or weed control at 1000 g/ha in assay [7] turned out to be 20%; in [8] it was 100%; in assay [9], 60%; in [10], 100%; in assay [11], 70%; in assay [12], 90%.

With `COC(=O)c1nc(C2CC2)nc(NCc2cc(OC)c(OC)c(OC)c2)c1Cl` [Compound 4-122, 5-Chloro-2-cyclopropyl-6-methoxycarbonyl-4-(3,4,5-trimethoxy-phenylmethyl-amino)pyrimidine], the pest or weed control at 1000 g/ha in assay [1] came out at 10%; in assay [2], 60%; in [3], 30%; in [4], 90%; in [5], 20%; in assay [6] it was 30%. Further, the pest or weed control at 1000 g/ha in [7] amounted to 20%; in assay [8], 100%; in [9], 90%; in assay [10] it was 100%; in assay [11], 90%; in assay [12], 100%.

With `COC(=O)c1nc(C2CC2)nc(NCc2ccco2)c1Cl` [Compound 4-125, 5-Chloro-2-cyclopropyl-4-(furan-2-ylmethyl-amino)-6-methoxy-carbonylpyrimidine], the pest or weed control at 1000 g/ha in assay [1] is 70%; in assay [2], 100%; in [3], 80%; in assay [4] it was 100%; in [5], 80%; in assay [6], 90%. Also, the pest or weed control at 1000 g/ha was found to be 60% in assay [7]; 100% in assay [8]; 80% in assay [9]; 100% in [10]; 90% in [11]; 100% in [12].

Take `COC(=O)c1nc(C2CC2)nc(NCc2ccc(Br)o2)c1Cl` [Compound 4-129, 4-(5-bromofuran-2-ylmethylamino)-5-chloro-2-cyclopropyl-6-methoxycarbonyl-pyrimidine]: the pest or weed control at 1000 g/ha in assay [1] turned out to be 30%; in assay [2], 100%; in assay [3] it was 70%; in [4] it was 100%; in assay [5] it was 40%; in assay [6], 100%. Besides, the pest or weed control at 1000 g/ha was 40% in assay [7]; 100% in assay [8]; 70% in [9]; 100% in assay [10]; 90% in assay [11]; 90% in assay [12].

On to `COC(=O)c1nc(C2CC2)nc(NCc2ccc(C)o2)c1Cl` [Compound 4-135, 5-Chloro-2-cyclopropyl-6-methoxy carbonyl-4-(5-methylfuran-2-ylmethylamino)-pyrimidine], for which the pest or weed control at 1000 g/ha in assay [1] turned out to be 60%; in assay [2], 100%; in assay [3], 100%; in assay [4], 100%; in [5], 90%; in [6] it was 100%. Also, the pest or weed control at 1000 g/ha in assay [7] worked out at 60%; in assay [8], 100%; in [9], 90%; in [10], 100%; in [11], 90%; in [12] it was 100%.

For the compound `COC(=O)c1nc(C2CC2)nc(NCc2cccs2)c1Cl` [Compound 4-140, 5-Chloro-2-cyclopropyl-6-methoxycarbonyl-4-(thiophen-2-ylmethylamino)-pyrimidine], the pest or weed control at 1000 g/ha in assay [1] was determined as 20%; in assay [2], 100%; in assay [3], 40%; in assay [4], 80%; in [5], 50%; in [6], 100%. Also, the pest or weed control at 1000 g/ha in assay [7] was determined as 30%; in [8], 90%; in assay [9] it was 60%; in assay [10], 90%; in assay [11], 70%; in assay [12], 90%.
